Experimental data published in BigSolDB 2.1.

Cc1ccc(NC(=O)/C(=C/Cl)Sc2ccccc2)cc1
solubility (mole fraction)
Conditions | 278.15 K | 283.15 K | 288.15 K | 293.15 K | 298.15 K | 303.15 K | 308.15 K | 313.15 K | 318.15 K
in 1,2-dichloroethane | 0.0353 | 0.0413 | 0.0512 | 0.0615 | 0.0773 | 0.0942 | 0.115 | 0.136 | 0.161
in 2-butanone | 0.0308 | 0.0365 | 0.0436 | 0.0529 | 0.0632 | 0.0772 | 0.0943 | 0.112 | 0.135
in 2-methyltetrahydrofuran | 0.0393 | 0.0466 | 0.0507 | 0.0604 | 0.0702 | 0.0858 | 0.103 | 0.126 | 0.145
in MTBE | 0.0068 | 0.0075 | 0.0092 | 0.0104 | 0.0132 | 0.0153 | 0.0187 | 0.0223 | 0.0277
in THF | 0.0849 | 0.0953 | 0.105 | 0.118 | 0.133 | 0.154 | 0.171 | 0.195 | 0.218
in acetone | 0.0216 | 0.0258 | 0.0296 | 0.0364 | 0.0452 | 0.0564 | 0.0707 | 0.0889 | 0.114
in acetonitrile | 0.0043 | 0.0051 | 0.0065 | 0.0086 | 0.0115 | 0.0148 | 0.02 | 0.0267 | 0.0362
in ethyl acetate | 0.0187 | 0.0233 | 0.0271 | 0.0331 | 0.0409 | 0.0522 | 0.0657 | 0.0794 | 0.0978
in isopropanol | 0.0019 | 0.0021 | 0.0025 | 0.0031 | 0.0041 | 0.0048 | 0.0063 | 0.0075 | 0.0093
in methyl acetate | 0.0153 | 0.0195 | 0.0228 | 0.028 | 0.0352 | 0.0471 | 0.0572 | 0.0693 | 0.0797
in tert-amyl alcohol | 0.0013 | 0.0015 | 0.0018 | 0.0026 | 0.0034 | 0.005 | 0.0068 | 0.0096 | 0.0129
in toluene | 0.014 | 0.0165 | 0.0202 | 0.0266 | 0.0318 | 0.0443 | 0.0551 | 0.069 | 0.0876
